Laboratory results taken from US4201866A, “O-Hemi-succinate of propranolol” (American Home Products Corporation, priority 1977, dated 1980).
“And” between values parts separate entries of the source, which are not always exact repeats. Equal entries are not always repeated. Structures can show the parent of a compound that is named as a salt. Where two headings read alike, the source gives them in different places.

What was measured:
[1] = cited from earlier work
[2] = Intravenous administration of propranolol HCl and propranolol-o-hemi-succinate HCl; plasma levels of free propranolol (Example 3); type: in vivo, beagle dogs; details: i.v., 20 mg propranolol HCl or equivalent
Protocol: (§1) Plasma was analyzed for free propranolol by a TLC fluorometric procedure. Two ml samples were mixed with 2 ml of pH 10 buffer and extracted with 25 ml of ethyl ether. A 20 ml aliquot from the ether phase was evaporated to dryness and the dry residue was dissolved in 100 μl of ethanol. Twenty-five μl aliquots were spotted on TLC plates of silica gel along with standard solutions of propranolol. The plates were developed in a saturated tank containing the solvent system methanol (100 ml): concentrated NH4 OH (0.4 ml). After development, the plates were dried and sprayed with a 50% solution of propylene glycol in water. They were then read in the fluorescence mode of a Schoeffel spectrodensitometer. The limit of reliable quantitation was 2 ng. of propranolol per ml of plasma.
In this experiment, the same four dogs used in Example 2 were administered a 20 mg intravenous dose of propranolol HCl on one experimental day and an equivalent dose of the o-hemi-succinate on a second day. A period of one week elapsed between each administration. Blood samples were collected and analyzed as above.

[3] = Oral administration of a reduced dose of propranolol-o-hemi-succinate hydrochloride; plasma levels of free propranolol (Example 4); type: in vivo, beagle dogs
Protocol: Two beagle dogs were given an oral dose of 13.4 mg of propranolol-O-hemi-succinate hydrochloride (equivalent to 10 mg. propranolol HCl). Blood samples were obtained at regular intervals after drug administration and plasma analyzed for free propranolol. Plasma levels of free propranolol were compared to those obtained following administration of 80 mg dose of propranolol HCl.

[4] = Oral administration of propranolol-o-hemi-succinate HCl and propranolol HCl; plasma levels of free propranolol (Example 2); type: in vivo, beagle dogs; details: 80 mg propranolol HCl or equivalent
Protocol: In this experiment, four beagle dogs were given an 80 mg. oral dose of propranolol HCl or an equivalent dose of the o-hemi-succinate. The animals were divided into two groups of two, each group receiving the drugs according to a crossover design. The crossover experiment was repeated twice. A period of at least one week elapsed between each dosing day. Blood samples were obtained at regular intervals after dosing a plasma was analyzed for free propranolol concentrations.
as §1

With `CC(C)NCC(O)COc1cccc2ccccc12` (centres unmarked) [propranolol HCl, 1-isopropyl-amino-3-(1-naphthoxy)-2-propanol] as the compound, how does the “unchanged active material reaching the systemic circulation after oral administration” value ([1]; because of extensive metabolism) read?
The value was “little unchanged active material”.

What about the “patient to patient variation of plasma levels” value ([1]; oral) of the same compound?
The value was “large patient to patient variation”.

What about the “Plasma level of free propranolol” value ([2]; 0 h, individual dogs) of the same compound?
Its value is 0 ng/mL.

And the “Mean plasma level of free propranolol” value ([2]; 0 h, mean)?
The value was 0 ng/mL.

And the “Plasma level of free propranolol” value ([2]; 1/2 hr after dosing, individual dogs, 30 min)?
Its value is 232 ng/mL and 269 ng/mL and 144 ng/mL.

And the “Plasma level of free propranolol” value ([2]; 5 min after dosing, individual dogs, 5 min)?
Its value is 391 ng/mL and 312 ng/mL and 376 ng/mL and 194 ng/mL.

What about the “Plasma level of free propranolol” value ([2]; 10 min after dosing, individual dogs, 10 min) of the same compound?
The value was 368 ng/mL and 319 ng/mL and 177 ng/mL.

What about the “Plasma level of free propranolol” value ([2]; 15 min after dosing, individual dogs, 15 min) of the same compound?
Its value is 320 ng/mL and 271 ng/mL and 149 ng/mL.

What about the “Plasma level of free propranolol” value ([2]; 1 hr after dosing, individual dogs, 60 min) of the same compound?
Its value is 207 ng/mL and 229 ng/mL and 128 ng/mL.

What about the “Plasma level of free propranolol” value ([2]; 2 hr after dosing, individual dogs, 120 min) of the same compound?
Its value is 149 ng/mL and 119 ng/mL and 122 ng/mL.

What about the “Plasma level of free propranolol” value ([2]; 4 hr after dosing, individual dogs, 240 min) of the same compound?
Its value is 114 ng/mL and 87 ng/mL and 61 ng/mL.

And the “Plasma level of free propranolol” value ([2]; 6 hr after dosing, individual dogs, 360 min)?
The value was 45 ng/mL and 28 ng/mL and 39 ng/mL.

What about the concentration at 0.5 h ([2]; dog, plasma, iv, 20 mg, 1/2 hr after dosing, individual dogs, read-out: Plasma level of free propranolol) of the same compound?
The concentration at 0.5 h was 280 ng/mL.

What about the concentration at 0.5 h ([2]; dog, plasma, iv, 20 mg, 1/2 hr after dosing, mean, read-out: Mean plasma level of free propranolol) of the same compound?
The concentration at 0.5 h was 231 ng/mL.

And the concentration at 5 min ([2]; dog, plasma, iv, 20 mg, 5 min after dosing, mean, read-out: Mean plasma level of free propranolol)?
Its concentration at 5 min is 318 ng/mL.

And the concentration at 10 min ([2]; dog, plasma, iv, 20 mg, 10 min after dosing, mean, read-out: Mean plasma level of free propranolol)?
Its concentration at 10 min is 288 ng/mL.

What about the concentration at 0.25 h ([2]; dog, plasma, iv, 20 mg, 15 min after dosing, mean, read-out: Mean plasma level of free propranolol) of the same compound?
The concentration at 0.25 h was 247 ng/mL.

What about the concentration at 1 h ([2]; dog, plasma, iv, 20 mg, 1 hr after dosing, individual dogs, read-out: Plasma level of free propranolol) of the same compound?
The concentration at 1 h was 240 ng/mL.

What about the concentration at 1 h ([2]; dog, plasma, iv, 20 mg, 1 hr after dosing, mean, read-out: Mean plasma level of free propranolol) of the same compound?
Its concentration at 1 h is 201 ng/mL.

And the concentration at 2 h ([2]; dog, plasma, iv, 20 mg, 2 hr after dosing, individual dogs, read-out: Plasma level of free propranolol)?
The concentration at 2 h was 191 ng/mL.

What about the concentration at 2 h ([2]; dog, plasma, iv, 20 mg, 2 hr after dosing, mean, read-out: Mean plasma level of free propranolol) of the same compound?
The concentration at 2 h was 145 ng/mL.

What about the concentration at 4 h ([2]; dog, plasma, iv, 20 mg, 4 hr after dosing, mean, read-out: Mean plasma level of free propranolol) of the same compound?
The concentration at 4 h was 79 ng/mL.

And the concentration at 6 h ([2]; dog, plasma, iv, 20 mg, 6 hr after dosing, individual dogs, read-out: Plasma level of free propranolol)?
Its concentration at 6 h is 53 ng/mL.

What about the concentration at 6 h ([2]; dog, plasma, iv, 20 mg, 6 hr after dosing, mean, read-out: Mean plasma level of free propranolol) of the same compound?
Its concentration at 6 h is 41 ng/mL.

And the AUC at 6 h ([2]; dog, plasma, iv, 20 mg, individual dogs, read-out: AUC 0-6 hr of free propranolol)?
Its AUC at 6 h is 974 ng·h/mL.

What about the AUC at 6 h ([2]; dog, plasma, iv, 20 mg, read-out: average AUC of free propranolol) of the same compound?
The AUC at 6 h was 746 ng·h/mL.

What about the “AUC 0-6 hr of free propranolol” value ([2]; individual dogs, 360 min) of the same compound?
Its value is 744 ng·h/mL and 615 ng·h/mL and 534 ng·h/mL.

And the “Plasma level of free propranolol” value ([3]; 0 h, 80 mg propranolol HCl or 13.4 mg hemi-succinate HCl, individual dogs)?
Its value is 0.

What about the “AUC of free propranolol” value ([3]; 13.4 mg hemi-succinate HCl or 80 mg propranolol HCl, dog #353 (101, 92), dog #250 (114, 168), 360 min) of the same compound?
Its value is 168.

What about the “Plasma level of free propranolol” value ([3]; 1/2 hour after dosing, 80 mg propranolol HCl or 13.4 mg hemi-succinate HCl, individual dogs, 30 min) of the same compound?
Its value is 18.

And the “Plasma level of free propranolol” value ([3]; 1 hour after dosing, 80 mg propranolol HCl or 13.4 mg hemi-succinate HCl, individual dogs, 60 min)?
The value was 44.

What about the “Plasma level of free propranolol” value ([3]; 2 hours after dosing, 80 mg propranolol HCl or 13.4 mg hemi-succinate HCl, individual dogs, 120 min) of the same compound?
Its value is 51 and 24.

What about the “Plasma level of free propranolol” value ([3]; 4 hours after dosing, 80 mg propranolol HCl or 13.4 mg hemi-succinate HCl, individual dogs, 240 min) of the same compound?
Its value is 26 and 7.

What about the “Plasma level of free propranolol” value ([3]; 6 hours after dosing, 80 mg propranolol HCl or 13.4 mg hemi-succinate HCl, individual dogs) of the same compound?
The value was 0.

What about the AUC at 6 h ([3]; dog, plasma, po, 80 mg, 13.4 mg hemi-succinate HCl or 80 mg propranolol HCl, dog #353 (101, 92), dog #250 (114, 168)) of the same compound?
Its AUC at 6 h is 92 ng·h/mL.

What about the concentration at 0.5 h ([3]; dog, plasma, po, 80 mg, 1/2 hour after dosing, 80 mg propranolol HCl or 13.4 mg hemi-succinate HCl, individual dogs, read-out: Plasma level of free propranolol) of the same compound?
The concentration at 0.5 h was 10 ng/mL.

And the concentration at 1 h ([3]; dog, plasma, po, 80 mg, 1 hour after dosing, 80 mg propranolol HCl or 13.4 mg hemi-succinate HCl, individual dogs, read-out: Plasma level of free propranolol)?
The concentration at 1 h was 38 ng/mL.

And the concentration at 6 h ([3]; dog, plasma, po, 80 mg, 6 hours after dosing, 80 mg propranolol HCl or 13.4 mg hemi-succinate HCl, individual dogs, read-out: Plasma level of free propranolol)?
Its concentration at 6 h is 9 ng/mL.

What about the “Plasma level of free propranolol” value ([4]; 0 h, individual dogs) of the same compound?
The value was 0 ng/mL.

And the “Mean plasma level of free propranolol” value ([4]; 0 h, mean of Study 1, Study 2 or overall)?
The value was 0 ng/mL.

What about the “C.V. of overall mean AUC 0-6 hr” value [4] of the same compound?
The value was 65%.

What about the “s.d. of overall mean AUC 0-6 hr” value [4] of the same compound?
The value was 87 ng·h/mL.

What about the “AUC 0-6 hr of free propranolol” value ([4]; individual dogs, listed as propranolol hydrochloride, 360 min) of the same compound?
Its value is 69 ng·h/mL and 63 ng·h/mL and 29 ng·h/mL and 160 ng·h/mL and 189 ng·h/mL and 171 ng·h/mL and 297 ng·h/mL and 99 ng·h/mL.

And the “Plasma level of free propranolol” value ([4]; 1/2 hr after dosing, individual dogs)?
Its value is 0 ng/mL.

What about the “Plasma level of free propranolol” value ([4]; 1/2 hr after dosing, individual dogs, 30 min, listed as propranolol hydrochloride, 30 min) of the same compound?
Its value is 23 ng/mL and 103 ng/mL and 24 ng/mL.

What about the “Plasma level of free propranolol” value ([4]; 1/2 hr after dosing, individual dogs, listed as propranolol hydrochloride) of the same compound?
Its value is “trace”.

What about the “Plasma level of free propranolol” value ([4]; 1 hr after dosing, individual dogs, listed as propranolol hydrochloride) of the same compound?
Its value is “trace and 0 ng/ml”.

And the “Plasma level of free propranolol” value ([4]; 1 hr after dosing, individual dogs, listed as propranolol hydrochloride, 60 min)?
Its value is 11 ng/mL and 56 ng/mL and 31 ng/mL and 101 ng/mL and 24 ng/mL.

What about the “Plasma level of free propranolol” value ([4]; 2 hr after dosing, individual dogs, listed as propranolol hydrochloride) of the same compound?
The value was “trace”.

What about the “Plasma level of free propranolol” value ([4]; 2 hr after dosing, individual dogs, listed as propranolol hydrochloride, 120 min) of the same compound?
The value was 23 ng/mL and 14 ng/mL and 45 ng/mL and 51 ng/mL and 65 ng/mL and 19 ng/mL.

And the “Plasma level of free propranolol” value ([4]; 4 hr after dosing, individual dogs, listed as propranolol hydrochloride)?
Its value is “trace”.

And the “Plasma level of free propranolol” value ([4]; 4 hr after dosing, individual dogs, listed as propranolol hydrochloride, 240 min)?
Its value is 26 ng/mL and 14 ng/mL and 12 ng/mL and 36 ng/mL and 33 ng/mL and 17 ng/mL.

What about the “Plasma level of free propranolol” value ([4]; 6 hr after dosing, individual dogs, listed as propranolol hydrochloride) of the same compound?
Its value is 0 ng/ml and trace.

And the “Plasma level of free propranolol” value ([4]; 6 hr after dosing, individual dogs, listed as propranolol hydrochloride, 360 min)?
The value was 17 ng/mL and 21 ng/mL and 6 ng/mL.

And the half-life ([4]; dog, plasma)?
Its half-life is 1.8 h.

What about the AUC at 6 h ([4]; dog, plasma, po, 80 mg, read-out: average AUC (0-6 hr.) of free propranolol, overall study) of the same compound?
The AUC at 6 h was 132 ng·h/mL.
